The kinase profiling compilation of Christmann-Franck et al. (2016)
Values joined by “and” are separate entries in the source; they are usually repeats but may differ in a detail not shown here. Equal values may be shown once.

Columns and labels:
Test in all cases: radiometric filter-binding kinase assay, Kinase HotSpot
Details in all cases: compound 0.5 µM; ATP 10 µM
SIK2 (human) = SIK2 (human) (UniProt Q9H0K1)
LRRK2 (human) = LRRK2 (human) (UniProt Q5S007)
WNK2 (human) = WNK2 (human) (UniProt Q9Y3S1)
DYRK1A (human) = DYRK1A (human) (UniProt Q13627)
PRKCB1 (human) = PRKCB1 (human) (UniProt P05771)
CHEK1 (human) = CHEK1 (human) (UniProt O14757)
STK17A (human) = STK17A (human) (UniProt Q9UEE5)
PRKCH (human) = PRKCH (human) (UniProt P24723)
MAP4K2 (human) = MAP4K2 (human) (UniProt Q12851)
MAP3K2 (human) = MAP3K2 (human) (UniProt Q9Y2U5)
PRKACA (human) = PRKACA (human) (UniProt P17612)
DAPK2 (human) = DAPK2 (human) (UniProt Q9UIK4)
CDK4 CCND1 (human) = CDK4 CCND1 (human) (UniProt P24385+P11802)
RPS6KB2 (human) = RPS6KB2 (human) (UniProt Q9UBS0)
[1] = tested on: MKNK1 (human), Q9BUB5 [T385D; 165-205 del]
NTRK2 (human) = NTRK2 (human) (UniProt Q16620)
MAPK8 (human) = MAPK8 (human) (UniProt P45983)
HIPK1 (human) = HIPK1 (human) (UniProt Q86Z02)
ADRBK1 (human) = ADRBK1 (human) (UniProt P25098)
ULK2 (human) = ULK2 (human) (UniProt Q8IYT8)
NEK3 (human) = NEK3 (human) (UniProt P51956)
STK25 (human) = STK25 (human) (UniProt O00506)
MAP4K4 (human) = MAP4K4 (human) (UniProt O95819)
IRAK4 (human) = IRAK4 (human) (UniProt Q9NWZ3)
GSK3A (human) = GSK3A (human) (UniProt P49840)
NEK6 (human) = NEK6 (human) (UniProt Q9HC98)
NEK7 (human) = NEK7 (human) (UniProt Q8TDX7)
TAOK2 (human) = TAOK2 (human) (UniProt Q9UL54)
SRPK2 (human) = SRPK2 (human) (UniProt P78362)
MARK3 (human) = MARK3 (human) (UniProt P27448)
MINK1 (human) = MINK1 (human) (UniProt Q8N4C8)
FGR (human) = FGR (human) (UniProt P09769)
CSNK2A1 (human) = CSNK2A1 (human) (UniProt P68400)
ROS1 (human) = ROS1 (human) (UniProt P08922)
MARK4 (human) = MARK4 (human) (UniProt Q96L34)
STK24 (human) = STK24 (human) (UniProt Q9Y6E0)
ACVR1 (human) = ACVR1 (human) (UniProt Q04771)
BTK (human) = BTK (human) (UniProt Q06187)
[2] = tested on: MAP2K6 (human), P52564 [S207E/T211E]
CSNK1G2 (human) = CSNK1G2 (human) (UniProt P78368)
LYN (human) = LYN (human) (UniProt P07948)
SRMS (human) = SRMS (human) (UniProt Q9H3Y6)

Sequence of MAP2K6 (human), P52564 [S207E/T211E] (P52564 whole entry S207E/T211E, looked up): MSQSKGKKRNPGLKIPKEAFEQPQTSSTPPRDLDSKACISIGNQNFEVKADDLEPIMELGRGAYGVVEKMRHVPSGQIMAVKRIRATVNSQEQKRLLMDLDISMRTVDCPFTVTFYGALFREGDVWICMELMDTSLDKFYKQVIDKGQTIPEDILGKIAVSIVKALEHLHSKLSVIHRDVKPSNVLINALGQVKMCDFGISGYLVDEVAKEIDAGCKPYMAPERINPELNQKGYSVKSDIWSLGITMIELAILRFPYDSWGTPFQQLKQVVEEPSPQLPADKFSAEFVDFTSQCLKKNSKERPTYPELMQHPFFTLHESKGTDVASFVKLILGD
Sequence of STK25 (human) (O00506 whole entry, looked up): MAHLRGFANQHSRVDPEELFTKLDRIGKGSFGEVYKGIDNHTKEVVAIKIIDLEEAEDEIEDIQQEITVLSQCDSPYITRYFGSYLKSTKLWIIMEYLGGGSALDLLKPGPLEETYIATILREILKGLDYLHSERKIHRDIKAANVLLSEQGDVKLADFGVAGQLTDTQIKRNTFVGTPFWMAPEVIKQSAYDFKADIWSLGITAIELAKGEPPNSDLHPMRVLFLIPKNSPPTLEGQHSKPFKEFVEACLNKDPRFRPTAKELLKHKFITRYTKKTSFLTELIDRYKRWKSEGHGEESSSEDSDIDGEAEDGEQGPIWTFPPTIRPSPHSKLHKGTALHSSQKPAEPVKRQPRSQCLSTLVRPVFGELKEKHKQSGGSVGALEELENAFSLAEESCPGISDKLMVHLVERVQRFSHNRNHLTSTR
Sequence of MAP4K4 (human) (O95819 whole entry, looked up): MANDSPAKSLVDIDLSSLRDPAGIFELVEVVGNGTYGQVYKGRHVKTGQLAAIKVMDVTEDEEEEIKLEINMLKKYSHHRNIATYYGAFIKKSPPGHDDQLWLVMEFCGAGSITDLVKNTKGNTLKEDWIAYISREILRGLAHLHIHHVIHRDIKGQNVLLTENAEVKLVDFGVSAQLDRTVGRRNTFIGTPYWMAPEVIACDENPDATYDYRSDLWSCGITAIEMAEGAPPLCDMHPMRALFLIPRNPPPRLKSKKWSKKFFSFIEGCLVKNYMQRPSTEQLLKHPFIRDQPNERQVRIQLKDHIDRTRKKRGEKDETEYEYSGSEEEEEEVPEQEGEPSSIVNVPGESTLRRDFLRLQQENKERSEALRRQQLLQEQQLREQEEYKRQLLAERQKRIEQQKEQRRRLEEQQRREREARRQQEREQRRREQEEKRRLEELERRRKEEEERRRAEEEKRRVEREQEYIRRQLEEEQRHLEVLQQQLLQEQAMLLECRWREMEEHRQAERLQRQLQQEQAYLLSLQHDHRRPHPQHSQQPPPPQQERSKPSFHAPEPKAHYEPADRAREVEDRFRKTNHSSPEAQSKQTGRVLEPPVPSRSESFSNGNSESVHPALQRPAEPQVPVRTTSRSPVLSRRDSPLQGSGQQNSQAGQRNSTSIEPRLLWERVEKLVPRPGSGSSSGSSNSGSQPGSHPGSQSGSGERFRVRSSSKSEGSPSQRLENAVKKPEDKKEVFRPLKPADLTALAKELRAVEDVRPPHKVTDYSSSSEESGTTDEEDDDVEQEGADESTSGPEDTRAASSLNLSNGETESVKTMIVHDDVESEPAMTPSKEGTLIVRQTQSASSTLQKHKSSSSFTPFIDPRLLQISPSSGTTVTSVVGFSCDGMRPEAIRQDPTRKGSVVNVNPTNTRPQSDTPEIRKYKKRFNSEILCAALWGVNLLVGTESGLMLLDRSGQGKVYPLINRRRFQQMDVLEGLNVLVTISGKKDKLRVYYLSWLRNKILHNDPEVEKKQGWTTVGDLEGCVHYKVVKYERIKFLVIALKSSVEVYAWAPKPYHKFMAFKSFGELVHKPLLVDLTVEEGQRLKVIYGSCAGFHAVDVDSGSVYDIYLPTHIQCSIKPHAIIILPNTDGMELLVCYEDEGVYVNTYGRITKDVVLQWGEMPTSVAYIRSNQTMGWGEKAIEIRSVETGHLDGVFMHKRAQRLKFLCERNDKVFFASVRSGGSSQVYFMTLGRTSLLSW
Sequence of STK24 (human) (Q9Y6E0 whole entry, looked up): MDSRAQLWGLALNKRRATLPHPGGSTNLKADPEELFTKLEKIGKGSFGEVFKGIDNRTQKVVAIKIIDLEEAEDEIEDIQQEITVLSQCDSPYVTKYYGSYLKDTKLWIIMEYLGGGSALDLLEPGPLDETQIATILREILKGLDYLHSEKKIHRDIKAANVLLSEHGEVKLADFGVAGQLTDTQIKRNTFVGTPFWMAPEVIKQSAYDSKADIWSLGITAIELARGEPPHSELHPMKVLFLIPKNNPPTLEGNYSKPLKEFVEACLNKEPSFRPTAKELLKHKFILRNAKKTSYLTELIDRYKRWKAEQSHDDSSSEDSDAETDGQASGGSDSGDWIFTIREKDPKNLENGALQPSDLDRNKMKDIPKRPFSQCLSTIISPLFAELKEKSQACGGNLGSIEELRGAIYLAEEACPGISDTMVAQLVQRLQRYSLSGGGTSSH
Sequence of SRPK2 (human) (P78362 whole entry, looked up): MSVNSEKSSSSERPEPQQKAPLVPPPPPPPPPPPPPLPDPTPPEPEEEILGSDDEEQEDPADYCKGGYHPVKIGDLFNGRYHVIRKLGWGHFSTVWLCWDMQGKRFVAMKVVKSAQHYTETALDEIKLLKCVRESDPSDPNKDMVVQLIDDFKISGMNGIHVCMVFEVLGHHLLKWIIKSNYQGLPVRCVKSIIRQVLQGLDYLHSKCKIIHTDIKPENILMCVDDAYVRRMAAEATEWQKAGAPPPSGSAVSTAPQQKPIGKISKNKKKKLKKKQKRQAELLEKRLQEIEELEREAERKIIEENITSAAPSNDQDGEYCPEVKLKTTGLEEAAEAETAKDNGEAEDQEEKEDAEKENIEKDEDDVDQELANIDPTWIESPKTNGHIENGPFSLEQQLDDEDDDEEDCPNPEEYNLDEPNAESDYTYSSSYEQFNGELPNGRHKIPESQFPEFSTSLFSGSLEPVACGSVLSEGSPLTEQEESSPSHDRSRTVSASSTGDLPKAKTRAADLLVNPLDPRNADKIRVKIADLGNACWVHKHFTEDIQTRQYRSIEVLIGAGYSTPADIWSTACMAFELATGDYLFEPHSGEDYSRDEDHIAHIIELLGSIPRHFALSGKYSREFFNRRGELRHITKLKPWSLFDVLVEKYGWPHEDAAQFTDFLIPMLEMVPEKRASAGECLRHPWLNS
Sequence of HIPK1 (human) (Q86Z02 whole entry, looked up): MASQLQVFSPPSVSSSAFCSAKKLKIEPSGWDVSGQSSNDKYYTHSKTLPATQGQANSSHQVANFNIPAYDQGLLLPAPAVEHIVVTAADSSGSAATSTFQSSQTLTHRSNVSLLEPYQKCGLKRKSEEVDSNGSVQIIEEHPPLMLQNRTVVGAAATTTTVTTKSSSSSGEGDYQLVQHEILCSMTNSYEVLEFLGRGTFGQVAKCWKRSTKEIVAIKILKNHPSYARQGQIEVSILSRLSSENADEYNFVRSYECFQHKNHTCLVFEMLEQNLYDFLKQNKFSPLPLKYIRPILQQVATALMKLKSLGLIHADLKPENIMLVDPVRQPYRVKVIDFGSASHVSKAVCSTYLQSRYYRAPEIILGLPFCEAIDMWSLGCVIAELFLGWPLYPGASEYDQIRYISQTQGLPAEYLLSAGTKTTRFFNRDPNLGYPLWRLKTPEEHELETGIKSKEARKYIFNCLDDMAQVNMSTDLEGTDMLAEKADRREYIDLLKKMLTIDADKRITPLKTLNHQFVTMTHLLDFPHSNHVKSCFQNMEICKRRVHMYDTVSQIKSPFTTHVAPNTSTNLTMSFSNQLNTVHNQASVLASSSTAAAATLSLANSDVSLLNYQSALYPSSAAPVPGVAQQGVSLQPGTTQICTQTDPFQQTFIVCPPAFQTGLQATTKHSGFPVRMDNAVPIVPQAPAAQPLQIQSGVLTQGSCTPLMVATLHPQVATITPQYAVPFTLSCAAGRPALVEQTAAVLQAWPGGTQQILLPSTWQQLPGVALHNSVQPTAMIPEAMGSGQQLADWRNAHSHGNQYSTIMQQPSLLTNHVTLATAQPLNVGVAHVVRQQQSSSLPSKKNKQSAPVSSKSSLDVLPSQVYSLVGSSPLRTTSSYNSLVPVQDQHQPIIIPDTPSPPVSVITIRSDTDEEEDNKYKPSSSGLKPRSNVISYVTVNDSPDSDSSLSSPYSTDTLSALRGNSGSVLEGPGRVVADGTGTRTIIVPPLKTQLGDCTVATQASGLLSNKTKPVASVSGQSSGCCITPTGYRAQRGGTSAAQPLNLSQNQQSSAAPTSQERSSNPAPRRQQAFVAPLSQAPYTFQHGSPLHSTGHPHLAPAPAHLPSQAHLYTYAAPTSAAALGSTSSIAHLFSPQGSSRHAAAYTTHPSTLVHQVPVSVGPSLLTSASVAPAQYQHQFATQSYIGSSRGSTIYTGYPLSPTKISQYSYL
Sequence of CSNK1G2 (human) (P78368 whole entry, looked up): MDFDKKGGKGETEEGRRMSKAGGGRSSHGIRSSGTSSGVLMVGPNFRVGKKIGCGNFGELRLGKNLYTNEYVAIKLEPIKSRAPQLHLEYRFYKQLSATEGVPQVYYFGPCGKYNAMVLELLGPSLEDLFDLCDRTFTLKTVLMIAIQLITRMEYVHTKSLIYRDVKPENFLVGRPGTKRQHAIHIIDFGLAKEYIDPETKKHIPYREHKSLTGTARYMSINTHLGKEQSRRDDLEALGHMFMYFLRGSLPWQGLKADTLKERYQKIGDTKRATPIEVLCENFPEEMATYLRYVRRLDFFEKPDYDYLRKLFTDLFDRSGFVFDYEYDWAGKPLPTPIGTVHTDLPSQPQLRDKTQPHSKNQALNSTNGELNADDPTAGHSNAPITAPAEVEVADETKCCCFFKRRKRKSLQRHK

c1ccc2c(-c3ccncc3)c[nH]c2c1
residual activity (SIK2 (human)): 90.5% | residual activity (LRRK2 (human)): 92.8% | residual activity (WNK2 (human)): 96.9% | residual activity (DYRK1A (human)): 77.6% | residual activity (PRKCB1 (human)): 95.1% | residual activity (CHEK1 (human)): 104% | residual activity (STK17A (human)): 93% | residual activity (PRKCH (human)): 84.9% | residual activity (MAP4K2 (human)): 101% | residual activity (MAP3K2 (human)): 94.9% | residual activity (PRKACA (human)): 91.6% | residual activity (DAPK2 (human)): 108% | residual activity (CDK4 CCND1 (human)): 112% | residual activity (RPS6KB2 (human)): 97.8% | residual activity [1]: 75.5% | residual activity (NTRK2 (human)): 107% | residual activity (MAPK8 (human)): 100% | residual activity (HIPK1 (human)): 97.4% | residual activity (ADRBK1 (human)): 97.7% | residual activity (ULK2 (human)): 106% | residual activity (NEK3 (human)): 91.6% | residual activity (STK25 (human)): 117% | residual activity (MAP4K4 (human)): 54.4% | residual activity (IRAK4 (human)): 109% | residual activity (GSK3A (human)): 103% | residual activity (NEK6 (human)): 93.4% | residual activity (NEK7 (human)): 104% | residual activity (TAOK2 (human)): 92.1% | residual activity (SRPK2 (human)): 103% | residual activity (MARK3 (human)): 98% | residual activity (MINK1 (human)): 84.6% | residual activity (FGR (human)): 94.5% | residual activity (CSNK2A1 (human)): 95% | residual activity (ROS1 (human)): 81.6% | residual activity (MARK4 (human)): 94.7% | residual activity (STK24 (human)): 93.5% | residual activity (ACVR1 (human)): 94.7% | residual activity (BTK (human)): 104% | residual activity [2]: 106% | residual activity (CSNK1G2 (human)): 95% | residual activity (LYN (human)): 100% and 102% | residual activity (SRMS (human)): 107%

N#Cc1c[nH]c2c[nH]/c(=N\Cc3cccnc3)cc2/c1=N\c1ccc(F)c(Cl)c1
residual activity (SIK2 (human)): 97.6% | residual activity (LRRK2 (human)): 86.6% | residual activity (WNK2 (human)): 91.1% | residual activity (DYRK1A (human)): 52.7% | residual activity (PRKCB1 (human)): 104% | residual activity (CHEK1 (human)): 90.2% | residual activity (STK17A (human)): 79.6% | residual activity (PRKCH (human)): 117% | residual activity (MAP4K2 (human)): 72.2% | residual activity (MAP3K2 (human)): 81.2% | residual activity (PRKACA (human)): 92.2% | residual activity (DAPK2 (human)): 108% | residual activity (CDK4 CCND1 (human)): 97.6% | residual activity (RPS6KB2 (human)): 99.5% | residual activity [1]: 73.2% | residual activity (NTRK2 (human)): 101% | residual activity (MAPK8 (human)): 110% | residual activity (HIPK1 (human)): 98.6% | residual activity (ADRBK1 (human)): 95.7% | residual activity (ULK2 (human)): 102% | residual activity (NEK3 (human)): 56% | residual activity (STK25 (human)): 95.6% | residual activity (MAP4K4 (human)): 44.4% | residual activity (IRAK4 (human)): 100% | residual activity (GSK3A (human)): 88.5% | residual activity (NEK6 (human)): 104% | residual activity (NEK7 (human)): 102% | residual activity (TAOK2 (human)): 86.1% | residual activity (SRPK2 (human)): 101% | residual activity (MARK3 (human)): 101% | residual activity (MINK1 (human)): 77.5% | residual activity (FGR (human)): 84.5% | residual activity (CSNK2A1 (human)): 95.9% | residual activity (ROS1 (human)): 98.3% | residual activity (MARK4 (human)): 96.4% | residual activity (STK24 (human)): 95.6% | residual activity (ACVR1 (human)): 95.6% | residual activity (BTK (human)): 98.3% | residual activity [2]: 115% | residual activity (CSNK1G2 (human)): 102% | residual activity (LYN (human)): 90.4% and 94.1% | residual activity (SRMS (human)): 104%

O=C1Nc2ccc(Br)cc2/C1=C\c1cc2c([nH]1)CCCC2
residual activity (SIK2 (human)): 92.7% | residual activity (LRRK2 (human)): 7.03% | residual activity (WNK2 (human)): 101% | residual activity (DYRK1A (human)): 87.1% | residual activity (PRKCB1 (human)): 97.4% | residual activity (CHEK1 (human)): 81.8% | residual activity (STK17A (human)): 72.9% | residual activity (PRKCH (human)): 97.4% | residual activity (MAP4K2 (human)): 58.1% | residual activity (MAP3K2 (human)): 93.6% | residual activity (PRKACA (human)): 96.5% | residual activity (DAPK2 (human)): 102% | residual activity (CDK4 CCND1 (human)): 97.9% | residual activity (RPS6KB2 (human)): 102% | residual activity [1]: 106% | residual activity (NTRK2 (human)): 43.6% | residual activity (MAPK8 (human)): 107% | residual activity (HIPK1 (human)): 97.2% | residual activity (ADRBK1 (human)): 105% | residual activity (ULK2 (human)): 114% | residual activity (NEK3 (human)): 86.7% | residual activity (STK25 (human)): 102% | residual activity (MAP4K4 (human)): 6.84% | residual activity (IRAK4 (human)): 67.2% | residual activity (GSK3A (human)): 88.5% | residual activity (NEK6 (human)): 103% | residual activity (NEK7 (human)): 103% | residual activity (TAOK2 (human)): 89.4% | residual activity (SRPK2 (human)): 90.6% | residual activity (MARK3 (human)): 84.9% | residual activity (MINK1 (human)): 26.4% | residual activity (FGR (human)): 67.7% | residual activity (CSNK2A1 (human)): 96.1% | residual activity (ROS1 (human)): 98.6% | residual activity (MARK4 (human)): 82.9% | residual activity (STK24 (human)): 94.2% | residual activity (ACVR1 (human)): 97% | residual activity (BTK (human)): 90.5% | residual activity [2]: 110% | residual activity (CSNK1G2 (human)): 96.8% | residual activity (LYN (human)): 70.8% and 86.8% | residual activity (SRMS (human)): 104%

CN(C)CCCn1cc(C2=C(c3c[nH]c4ccccc34)C(=O)NC2=O)c2ccccc21
residual activity (SIK2 (human)): 94.7% | residual activity (LRRK2 (human)): 89.8% | residual activity (WNK2 (human)): 107% | residual activity (DYRK1A (human)): 54.7% | residual activity (PRKCB1 (human)): 3.24% | residual activity (CHEK1 (human)): 39.1% | residual activity (STK17A (human)): 86.9% | residual activity (PRKCH (human)): 7.67% | residual activity (MAP4K2 (human)): 94.2% | residual activity (MAP3K2 (human)): 82.8% | residual activity (PRKACA (human)): 72% | residual activity (DAPK2 (human)): 105% | residual activity (CDK4 CCND1 (human)): 60.7% | residual activity (RPS6KB2 (human)): 59% | residual activity [1]: 81.2% | residual activity (NTRK2 (human)): 55.8% | residual activity (MAPK8 (human)): 90.2% | residual activity (HIPK1 (human)): 96.6% | residual activity (ADRBK1 (human)): 96.5% | residual activity (ULK2 (human)): 145% | residual activity (NEK3 (human)): 110% | residual activity (STK25 (human)): 69.7% | residual activity (MAP4K4 (human)): 55.9% | residual activity (IRAK4 (human)): 135% | residual activity (GSK3A (human)): 11.2% | residual activity (NEK6 (human)): 96.3% | residual activity (NEK7 (human)): 87.1% | residual activity (TAOK2 (human)): 75.7% | residual activity (SRPK2 (human)): 94.4% | residual activity (MARK3 (human)): 72% | residual activity (MINK1 (human)): 92.1% | residual activity (FGR (human)): 90.9% | residual activity (CSNK2A1 (human)): 99.5% | residual activity (ROS1 (human)): 62.8% | residual activity (MARK4 (human)): 66.9% | residual activity (STK24 (human)): 52.9% | residual activity (ACVR1 (human)): 96.3% | residual activity (BTK (human)): 93.8% | residual activity [2]: 97.4% | residual activity (CSNK1G2 (human)): 90.3% | residual activity (LYN (human)): 104% and 84.1% | residual activity (SRMS (human)): 104%
